Experimental data from patent publication US20100021918A1, “METHOD FOR ASSAYING ACTION OF ANTITUMOR AGENT USING SPLICING DEFECTS AS INDEX” (Eisai R&D Management Co., Ltd., priority 2007, published 2010).

System: human colon carcinoma cell strain WiDr
Assay: Microarray analysis (Human Exon 1.0 ST Array) of intron expression, Table 1
Assay type: cell-based
Settings: six hours
Method: Using RNA purified from human colon carcinoma cell strain WiDr treated with 14 nM of (8E,12E,14E)-7-((4-cycloheptylpiperazin-1-yl)carbonyl)oxy-3,6,16,21-tetrahydroxy-6,10,12,16,20-pentamethyl-18,19-epoxytricosa-8,12,14-trien-11-olide (also referred to as “[…]”) for six hours, microarray analysis (Human Exon 1.0 ST Array: Affymetrix) was carried out. Not only does this array comprehensively cover the exons for all genes, but it is also designed to have probes for regions estimated as potential exons by a computer prediction program, which enables detection of the expression of the exons and introns of all genes in theory.
WiDr cells were first suspended in RPMI1640 medium (containing 10% FBS, penicillin, and streptomycin) and seeded in a 10 cm dish (2×10^6 cells/dish). After an overnight culture in an incubator with 5% carbon dioxide gas at 37° C., the medium was changed with medium containing 14 nM of (8E,12E,14E)-7-((4-cycloheptylpiperazin-1-yl)carbonyl)oxy-3,6,16,21-tetrahydroxy-6,10,12,16,20-pentamethyl-18,19-epoxytricosa-8,12,14-trien-11-olide or containing vehicle alone. After cultured for additional six hours, TRI reagent (SIGMA) were added to the cells and the cells were harvested. RNA was purified in accordance with the protocol of TRI reagent, followed by further purification with RNeasy (QIAGEN). Absorbance at 260 nm was measured to quantify an amount of RNA. This experiment was repeated three times and RNA samples (n=3) were prepared.
Ribosomal RNA was removed from 1 μg of each total RNA of control cells (n=3) and cells with the treatment (n=3) by using RiboMinus Human/Mouse Transcriptome Isolation Kit (Invitrogen). Single stranded cDNA synthesis, double stranded cDNA synthesis, cRNA synthesis, second single stranded cDNA synthesis, cDNA fragmentation, and cDNA labeling in order were carried out for the total RNA from which ribosomal RNA was removed, by using GeneChip Whole Transcript Sense Target Labeling and Control Reagents (Affymetrix) to make a cDNA probe. The cDNA probe was used for hybridization with Human Exon 1.0 ST Array (Affymetrix). The array was washed and stained, and luminescence intensity was measured by a scanner.
The expression level of the probe set and the gene was quantified by using Expression Console Ver. 1.0 (Affymetrix) with Summarization Method and Normalization Method being set to “Median polish as used in RMA” and “None”, respectively. The expression level of the probe was normalized with that of the gene. Welch's t-test was conducted for the treated group and the control group to determine a p value, which was converted into a q value by controlling False Discovery Ratio to pick out a significant probe set.
Probe sets showing that the q value was less than 1%; the normalized change in the level expression of the probe set in the group with the treatment was more than 10 times; the expression level of the probe set and the gene in the group with the treatment was more than 100; and probe set annotation was “extended, full, free”, were picked out and further arranged by gene. A gene was, when more than one probe sets therefor were found, determined as a candidate gene with increased expression level of the intron regions (Table 1). In Table 1, for the gene evaluated, gene name (Gene Name), abbreviated name (Gene Symbol), accession number (Accession), alias name (Synonym), transcription number in Human Exon 1.0 ST Array (Human Exon 1.0 ST Array), chromosome number (Chromosome), type of strand (Strand), start region (Start), stop region (Stop), and change in expression level (Fold Change) were respectively shown.

In the case of `CCC(O)C(C)C1OC1CC(C)(O)/C=C/C=C(\C)C1OC(=O)CC(O)CCC(C)(O)C(OC(=O)N2CCN(C3CCCCCC3)CC2)/C=C/C1C` (centres unmarked) [E7107, (8E,12E,14E)-7-((4-cycloheptylpiperazin-1-yl)carbonyl)oxy-3,6,16,21-tetrahydroxy-6,10,12,16,20-pentamethyl-18,19-epoxytricosa-8,12,14-trien-11-olide], the “Fold Change (change in expression level, intron probe sets) ADRM1” value (gene ADRM1, 14 nM) is reported as 13.51, the “Fold Change (change in expression level, intron probe sets) AK2” value (gene AK2, 14 nM) is reported as 10.05 and the “Fold Change (change in expression level, intron probe sets) ARFIP2” value (gene ARFIP2, 14 nM) is reported as 12.04. For the same compound, the “Fold Change (change in expression level, intron probe sets) ARHGAP12” value (gene ARHGAP12, 14 nM) was 11.60, the “Fold Change (change in expression level, intron probe sets) ATP1B1” value (gene ATP1B1, 14 nM) was 12.11 and the “Fold Change (change in expression level, intron probe sets) BAT2D1” value (gene BAT2D1, 14 nM) was 11.26. The “Fold Change (change in expression level, intron probe sets) BPTF” value (gene BPTF, 14 nM) was 17.61, the “Fold Change (change in expression level, intron probe sets) BXDC2” value (gene BXDC2, 14 nM) was 25.94 and the “Fold Change (change in expression level, intron probe sets) C6orf166” value (gene C6orf166, 14 nM) was 19.23. For the same compound, the “Fold Change (change in expression level, intron probe sets) C9orf86 // KIAA1984” value (gene C9orf86 // KIAA1984, 14 nM) was 13.66, the “Fold Change (change in expression level, intron probe sets) C10orf18” value (gene C10orf18, 14 nM) was 19.86 and the “Fold Change (change in expression level, intron probe sets) C16orf80” value (gene C16orf80, 14 nM) was 16.25. For the same compound, the “Fold Change (change in expression level, intron probe sets) CABLES1” value (gene CABLES1, 14 nM) was 16.94, the “Fold Change (change in expression level, intron probe sets) CCND1” value (gene CCND1, 14 nM) was 12.66 and the “Fold Change (change in expression level, intron probe sets) CCNL2” value (gene CCNL2, 14 nM) was 12.84. For the same compound, the “Fold Change (change in expression level, intron probe sets) CDC20” value (gene CDC20, 14 nM) was 18.22, the “Fold Change (change in expression level, intron probe sets) CENPL” value (gene CENPL, 14 nM) was 14.13 and the “Fold Change (change in expression level, intron probe sets) DCBLD2” value (gene DCBLD2, 14 nM) was 19.52. The “Fold Change (change in expression level, intron probe sets) DDEF2” value (gene DDEF2, 14 nM) was 22.92, the “Fold Change (change in expression level, intron probe sets) DKC1” value (gene DKC1, 14 nM) was 11.53 and the “Fold Change (change in expression level, intron probe sets) DNAJB1” value (gene DNAJB1, 14 nM) was 11.95. The “Fold Change (change in expression level, intron probe sets) EIF2C2” value (gene EIF2C2, 14 nM) was 21.33, the “Fold Change (change in expression level, intron probe sets) EIF4A1” value (gene EIF4A1, 14 nM) was 16.15 and the “Fold Change (change in expression level, intron probe sets) EIF5” value (gene EIF5, 14 nM) was 12.30. For the same compound, the “Fold Change (change in expression level, intron probe sets) FOXK2” value (gene FOXK2, 14 nM) was 18.79, the “Fold Change (change in expression level, intron probe sets) GNB2L1” value (gene GNB2L1, 14 nM) was 11.87 and the “Fold Change (change in expression level, intron probe sets) GNL3” value (gene GNL3, 14 nM) was 14.08. For the same compound, the “Fold Change (change in expression level, intron probe sets) GTPBP4” value (gene GTPBP4, 14 nM) was 12.24, the “Fold Change (change in expression level, intron probe sets) HMGCS1” value (gene HMGCS1, 14 nM) was 13.21 and the “Fold Change (change in expression level, intron probe sets) HSPA9” value (gene HSPA9, 14 nM) was 13.33. The “Fold Change (change in expression level, intron probe sets) HSPH1” value (gene HSPH1, 14 nM) was 15.12, the “Fold Change (change in expression level, intron probe sets) IDI1” value (gene IDI1, 14 nM) was 19.25 and the “Fold Change (change in expression level, intron probe sets) ILF2” value (gene ILF2, 14 nM) was 13.79. For the same compound, the “Fold Change (change in expression level, intron probe sets) ITGB1” value (gene ITGB1, 14 nM) was 21.48, the “Fold Change (change in expression level, intron probe sets) JARID1C” value (gene JARID1C, 14 nM) was 14.09 and the “Fold Change (change in expression level, intron probe sets) KIAA0174” value (gene KIAA0174, 14 nM) was 19.65. The “Fold Change (change in expression level, intron probe sets) KIAA1429” value (gene KIAA1429, 14 nM) was 14.19, the “Fold Change (change in expression level, intron probe sets) KLHL18” value (gene KLHL18, 14 nM) was 15.00 and the “Fold Change (change in expression level, intron probe sets) KRT18” value (gene KRT18, 14 nM) was 13.41. The “Fold Change (change in expression level, intron probe sets) LMO7” value (gene LMO7, 14 nM) was 14.34, the “Fold Change (change in expression level, intron probe sets) LTV1” value (gene LTV1, 14 nM) was 18.37 and the “Fold Change (change in expression level, intron probe sets) MAT2A” value (gene MAT2A, 14 nM) was 12.29. The “Fold Change (change in expression level, intron probe sets) MBNL2” value (gene MBNL2, 14 nM) was 28.86, the “Fold Change (change in expression level, intron probe sets) MYO1E” value (gene MYO1E, 14 nM) was 14.49 and the “Fold Change (change in expression level, intron probe sets) NET1” value (gene NET1, 14 nM) was 13.02. The “Fold Change (change in expression level, intron probe sets) NUPL1” value (gene NUPL1, 14 nM) was 12.63, the “Fold Change (change in expression level, intron probe sets) PUM2” value (gene PUM2, 14 nM) was 19.01 and the “Fold Change (change in expression level, intron probe sets) RAF1” value (gene RAF1, 14 nM) was 16.41. For the same compound, the “Fold Change (change in expression level, intron probe sets) RIOK3” value (gene RIOK3, 14 nM) was 13.67, the “Fold Change (change in expression level, intron probe sets) RNF40” value (gene RNF40, 14 nM) was 15.84 and the “Fold Change (change in expression level, intron probe sets) RSPRY1” value (gene RSPRY1, 14 nM) was 14.32. The “Fold Change (change in expression level, intron probe sets) SART3” value (gene SART3, 14 nM) was 15.13, the “Fold Change (change in expression level, intron probe sets) SLC2A1” value (gene SLC2A1, 14 nM) was 16.44 and the “Fold Change (change in expression level, intron probe sets) SMAD3” value (gene SMAD3, 14 nM) was 12.88. The “Fold Change (change in expression level, intron probe sets) SMURF2” value (gene SMURF2, 14 nM) was 16.60, the “Fold Change (change in expression level, intron probe sets) SNX19” value (gene SNX19, 14 nM) was 17.12 and the “Fold Change (change in expression level, intron probe sets) SPRED2” value (gene SPRED2, 14 nM) was 31.56. The “Fold Change (change in expression level, intron probe sets) ST3GAL1” value (gene ST3GAL1, 14 nM) was 12.77, the “Fold Change (change in expression level, intron probe sets) SUPV3L1” value (gene SUPV3L1, 14 nM) was 18.81 and the “Fold Change (change in expression level, intron probe sets) TARDBP” value (gene TARDBP, 14 nM) was 18.13. The “Fold Change (change in expression level, intron probe sets) TES” value (gene TES, 14 nM) was 15.95, the “Fold Change (change in expression level, intron probe sets) TINF2” value (gene TINF2, 14 nM) was 11.05 and the “Fold Change (change in expression level, intron probe sets) TJP1” value (gene TJP1, 14 nM) was 11.55. The “Fold Change (change in expression level, intron probe sets) UBE3A” value (gene UBE3A, 14 nM) was 19.35, the “Fold Change (change in expression level, intron probe sets) USP47” value (gene USP47, 14 nM) was 12.32 and the “Fold Change (change in expression level, intron probe sets) VIL2” value (gene VIL2, 14 nM) was 17.50. For the same compound, the “Fold Change (change in expression level, intron probe sets) WAC” value (gene WAC, 14 nM) was 18.53, the “Fold Change (change in expression level, intron probe sets) WDR45L” value (gene WDR45L, 14 nM) was 12.59 and the “Fold Change (change in expression level, intron probe sets) WDR73” value (gene WDR73, 14 nM) was 30.61. For the same compound, the “Fold Change (change in expression level, intron probe sets) WDR74” value (gene WDR74, 14 nM) was 12.70, the “Fold Change (change in expression level, intron probe sets) WEE1” value (gene WEE1, 14 nM) was 12.26 and the “Fold Change (change in expression level, intron probe sets) YTHDC1” value (gene YTHDC1, 14 nM) was 10.66. For the same compound, the “Fold Change (change in expression level, intron probe sets) ZNF384” value (gene ZNF384, 14 nM) was 12.13 and the “Fold Change (change in expression level, intron probe sets) ZNF410” value (gene ZNF410, 14 nM) was 12.01.
